The subject of the experiment is Aβ42 release. Kind of experiment: Aβ42 release from HEK cells stably expressing APPswe, Meso Scale Discovery electrochemiluminescence assay. It is filed as cell-based. The note with it: Homo sapiens, HEK293; HEK cell line stably expressing APPswe; 4-6 h incubation with test compound; Aβ42 secreted to cell medium; read-out: pIC50 values of Aβ42 release (converted). Here is the method: The level of activity of the compounds on Aβ formation was tested using the following method:
Compounds were diluted in 100% DMSO and stored at […] prior to use. Human Embryonic Kidney (HEK) cell line stably expressing APP with the Swedish mutation (APPswe) were cultured using Dulbecco's Modified Eagles medium (DMEM) supplied with […] glucose, Na-pyruvate and GlutaMAX with 10% FBS, 100 U/ml penicillin-streptomycin (PEST) respectively, 1×non-essential amino acids (NEAA), […], 100 μg/ml Zeocine. Cells at about 80% confluence were washed with PBS, detached from culture flasks using 1×Trypsin/EDTA diluted in PBS, re-suspended in cell media and plated in 384-well poly-d-lysine coated cell culture plates at about 10000-15000 cells/well, in 25 μL cell media. Optionally, cryo-preserved cells (frozen and stored at −140° C. in 90% cell media and 10% DMSO) were thawed, washed and plated as above. Next the cells were incubated for 15-24 h at 37° C. and 5% CO2, after which cell medium was changed. Fresh medium containing test compound diluted ×200 from prepared compound plate was added to the cells before further incubation for 4-6 hours at 37° C. and 5% CO2. After incubation with test compound the amount of Aβ peptides, including Aβ42, Aβ40, Aβ39, Aβ38 and Aβ37, secreted to cell medium was analyzed using the electrochemiluminescence assay technology from Meso Scale Discovery Technology, in combination with specific antibodies raised against the different Aβ peptides. Potential cytotoxic effects of the compounds were usually assayed by measuring the ATP content (ViaLight) from cell lysate.

As to `Cc1noc(-c2ccc(Nc3ccc4c(n3)OC(c3ccccc3)CN(C)C4=O)cc2)n1` (stereo not shown) [Example 1, 4-methyl-8-(4-(3-methyl-1,2,4-oxadiazol-5-yl)phenylamino)-2-phenyl-3,4-dihydropyrido[3,2-f][1,4]oxazepin-5(2H)-one], the IC50 is 1580 nM. In the case of `Cc1nccn1-c1ccc(Nc2ccc3c(n2)OC(c2ccccc2)CN(C)C3=O)cc1` (stereo not shown) [Example 2, 4-methyl-8-(4-(2-methyl-1H-imidazol-1-yl)phenylamino)-2-phenyl-3,4-dihydropyrido[3,2-f][1,4]oxazepin-5(2H)-one], the IC50 is 1260 nM.

For the compound `CN1CC(c2ccccc2)Oc2nc(Nc3ccc(-c4cnco4)cc3)ccc2C1=O` (stereo not shown) [Example 3, 4-methyl-8-(4-(1,3-oxazol-5-yl)phenylamino)-2-phenyl-3,4-dihydropyrido[3,2-f][1,4]oxazepin-5(2H)-one], the IC50 is 398 nM.

As to `COc1cc(Nc2ccc3c(n2)OC(c2ccccc2)CN(C)C3=O)ccc1-n1cnc(C)c1` (stereo not shown) [Example 4, 8-(3-methoxy-4-(4-methyl-1H-imidazol-1-yl)phenylamino)-4-methyl-2-phenyl-3,4-dihydropyrido[3,2-f][1,4]oxazepin-5(2H)-one], the IC50 was 200 nM. Then `CN1CC(c2ccccc2)Oc2nc(Nc3ccc(-n4ccnc4)cc3)ccc2C1=O` (stereo not shown) [Example 5, 8-(4-(1H-imidazol-1-yl)phenylamino)-4-methyl-2-phenyl-3,4-dihydropyrido[3,2-f][1,4]oxazepin-5(2H)-one], with 1000 nM. Take `Cc1nccn1-c1ccc(Nc2ccc3c(n2)OC(c2ccccc2)CN(C)C3=O)cn1` (stereo not shown) [Example 6, 4-methyl-8-(6-(2-methyl-1H-imidazol-1-yl)pyridin-3-ylamino)-2-phenyl-3,4-dihydropyrido[3,2-f][1,4]oxazepin-5(2H)-one]: the IC50 was 6310 nM. `COc1cc(Nc2ccc3c(n2)OC(c2ccccc2)CN(C)C3)ccc1-n1cnc(C)c1` (stereo not shown) [Example 7, N-(3-methoxy-4-(4-methyl-1H-imidazol-1-yl)phenyl)-4-methyl-2-phenyl-2,3,4,5-tetrahydropyrido[3,2-f][1,4]oxazepin-8-amine]: the IC50 was 39.8 nM. Consider `Cc1nccn1-c1ccc(Nc2ccc3c(n2)OC(c2ccccc2)CN(C)C3)cc1` (stereo not shown) [Example 8, 4-Methyl-N-(4-(2-methyl-1H-imidazol-1-yl)phenyl)-2-phenyl-2,3,4,5-tetrahydropyrido[3,2-f][1,4]oxazepin-8-amine], for which the IC50 was 158 nM. Regarding `COc1nc(Nc2ccc3c(n2)O[C@H](c2ccccc2)CN(C)C3)ccc1-n1cnc(C)c1` [Example 9, (R)—N-(6-methoxy-5-(4-methyl-1H-imidazol-1-yl)pyridin-2-yl)-4-methyl-2-phenyl-2,3,4,5-tetrahydropyrido[3,2-f][1,4]oxazepin-8-amine], the IC50 is 7.94 nM. Take `COc1cc(Nc2ccc3c(n2)O[C@H](c2ccccc2)CN(C)C3)ccc1-n1cnc(C)c1` [Example 10, (R)—N-(3-methoxy-4-(4-methyl-1H-imidazol-1-yl)phenyl)-4-methyl-2-phenyl-2,3,4,5-tetrahydropyrido[3,2-f][1,4]oxazepin-8-amine]: the IC50 is 12.6 nM. `COc1nc(Nc2ccc3c(n2)O[C@H](c2ccccc2)CN(C(C)=O)C3)ccc1-n1cnc(C)c1` [Example 11, (R)-1-(8-(6-methoxy-5-(4-methyl-1H-imidazol-1-yl)pyridin-2-ylamino)-2-phenyl-2,3-dihydropyrido[3,2-f][1,4]oxazepin-4(5H)-yl)ethanone]: the IC50 is 15.8 nM. With `COc1cc(Nc2ncc3c(n2)O[C@H](c2ccccc2)CN(CCF)C3)ccc1-n1cnc(C)c1` [Example 12, (R)-6-(2-fluoroethyl)-N-(3-methoxy-4-(4-methyl-1H-imidazol-1-yl)phenyl)-8-phenyl-5,6,7,8-tetrahydropyrimido[5,4-f][1,4]oxazepin-2-amine], the IC50 was 15.8 nM. For `COc1cc(Nc2ncc3c(n2)O[C@H](c2ccccc2)CN(C)C3)ccc1-n1cnc(C)c1` [Example 13, (R)—N-(3-methoxy-4-(4-methyl-1H-imidazol-1-yl)phenyl)-6-methyl-8-phenyl-5,6,7,8-tetrahydropyrimido[5,4-f][1,4]oxazepin-2-amine] the value was 20 nM. For `COc1cc(Nc2ccc3c(n2)OC(c2ccccc2)CN(CC#N)C3)ccc1-n1cnc(C)c1` (stereo not shown) [Example 14, 2-(8-(3-methoxy-4-(4-methyl-1H-imidazol-1-yl)phenylamino)-2-phenyl-2,3-dihydropyrido[3,2-f][1,4]oxazepin-4(5H)-yl)acetonitrile], the IC50 was 20 nM. Consider `COc1cc(Nc2ccc3c(n2)OC(c2ccccc2)CN(CCF)C3)ccc1-n1cnc(C)c1` (stereo not shown) [Example 15, 4-(2-fluoroethyl)-N-(3-methoxy-4-(4-methyl-1H-imidazol-1-yl)phenyl)-2-phenyl-2,3,4,5-tetrahydropyrido[3,2-f][1,4]oxazepin-8-amine], for which the IC50 is 31.6 nM. Then `Cc1cn(-c2ccc(Nc3ccc4c(n3)OC(c3ccccc3)CN(C)C4)cc2F)cn1` (stereo not shown) [Example 16, N-(3-fluoro-4-(4-methyl-1H-imidazol-1-yl)phenyl)-4-methyl-2-phenyl-2,3,4,5-tetrahydropyrido[3,2-f][1,4]oxazepin-8-amine], with 79.4 nM.

On to `COc1cc(Nc2ccc3c(n2)OC(c2ccccc2)CN(C(C)=O)C3)ccc1-n1cnc(C)c1` (stereo not shown) [Example 17, 1-(8-(3-methoxy-4-(4-methyl-1H-imidazol-1-yl)phenylamino)-2-phenyl-2,3-dihydropyrido[3,2-f][1,4]oxazepin-4(5H)-yl)ethanone], for which the IC50 is 79.4 nM. For the compound `CN1Cc2ccc(Nc3ccc(-n4ccnc4)cc3)nc2OC(c2ccccc2)C1` (stereo not shown) [Example 18, N-(4-(1H-imidazol-1-yl)phenyl)-4-methyl-2-phenyl-2,3,4,5-tetrahydropyrido[3,2-f][1,4]oxazepin-8-amine], the IC50 was 100 nM. For `COc1cc(Nc2ccc3c(n2)OC(c2cccnc2)CN(C)C3)ccc1-n1cnc(C)c1` (stereo not shown) [Example 19, N-(3-methoxy-4-(4-methyl-1H-imidazol-1-yl)phenyl)-4-methyl-2-(pyridin-3-yl)-2,3,4,5-tetrahydropyrido[3,2-f][1,4]oxazepin-8-amine] the value was 158 nM; for `COc1cc(Nc2ccc3c(n2)OC(c2ccccc2)CN(CCO)C3=O)ccc1-n1cnc(C)c1` (stereo not shown) [Example 20, 4-(2-Hydroxyethyl)-8-(3-methoxy-4-(4-methyl-1H-imidazol-1-yl)phenylamino)-2-phenyl-3,4-dihydropyrido[3,2-f][1,4]oxazepin-5(2H)-one], 200 nM. As for `COc1cc(Nc2ccc3c(n2)O[C@@H](c2ccccc2)CN(C)C3)ccc1-n1cnc(C)c1` [Example 21, (S)—N-(3-methoxy-4-(4-methyl-1H-imidazol-1-yl)phenyl)-4-methyl-2-phenyl-2,3,4,5-tetrahydropyrido[3,2-f][1,4]oxazepin-8-amine], the IC50 was 200 nM.

As to `COc1cc(Nc2ccc3c(n2)OC(c2cccnc2)CN(C(C)=O)C3)ccc1-n1cnc(C)c1` (stereo not shown) [Example 22, 1-(8-(3-Methoxy-4-(4-methyl-1H-imidazol-1-yl)phenylamino)-2-(pyridin-3-yl)-2,3-dihydropyrido[3,2-f][1,4]oxazepin-4(5H)-yl)ethanone], the IC50 was 501 nM. For `Cc1nccn1-c1ccc(Nc2ccc3c(n2)OC(c2ccccc2)CN(C)C3)cn1` (stereo not shown) [Example 23, 4-methyl-N-(6-(2-methyl-1H-imidazol-1-yl)pyridin-3-yl)-2-phenyl-2,3,4,5-tetrahydropyrido[3,2-f][1,4]oxazepin-8-amine] the value was 501 nM.

For `Cc1nccn1-c1ccc(Nc2ccc3c(n2)OC(c2ccccc2)CN(CCO)C3=O)cc1` (stereo not shown) [Example 24, 4-(2-hydroxyethyl)-8-(4-(2-methyl-1H-imidazol-1-yl)phenylamino)-2-phenyl-3,4-dihydropyrido[3,2-f][1,4]oxazepin-5(2H)-one], the IC50 was 794 nM. Then `Cc1nccn1-c1ccc(Nc2ccc3c(n2)N(C2CCCC2)CCN(C)C3=O)cc1` [Example 25, 1-cyclopentyl-4-methyl-8-(4-(2-methyl-1H-imidazol-1-yl)phenylamino)-3,4-dihydro-1H-pyrido[2,3-e][1,4]diazepin-5(2H)-one], with 5010 nM; and `OCCN1Cc2ccc(Nc3ccc(-c4nnc5n4CCC5)cc3)nc2O[C@H](c2ccccc2)C1` [Example 26, (R)-2-(8-(4-(6,7-Dihydro-5H-pyrrolo[2,1-c][1,2,4]triazol-3-yl)phenylamino)-2-phenyl-2,3-dihydropyrido[3,2-f][1,4]oxazepin-4(5H)-yl)ethanol], with 20000 nM. On to `Cc1cc(C2CN(CC#N)Cc3ccc(Nc4ccc(-n5ccnc5C)cc4)nc3O2)n(C)n1` (stereo not shown) [Example 27, 2-(2-(1,3-Dimethyl-1H-pyrazol-5-yl)-8-(4-(2-methyl-1H-imidazol-1-yl)phenylamino)-2,3-dihydropyrido[3,2-f][1,4]oxazepin-4(5H)-yl)acetonitrile], for which the IC50 was 7940 nM.

`CN1CC(c2ccccc2)Oc2nc(Oc3ccc(-n4ccnc4)cc3)ncc2C1=O` (stereo not shown) [Example 28, 2-(4-(1H-Imidazol-1-yl)phenoxy)-6-methyl-8-phenyl-7,8-dihydropyrimido[5,4-f][1,4]oxazepin-5(6H)-one]: the IC50 is 6310 nM.

These data come from patent US20100292210A1, “Novel Compounds for A-Beta-Related Pathologies” (AstraZeneca AB, priority 2009, published 2010).
